The values that follow come from publication PMC7689813 (Journal of Clinical Pharmacology, 2020).

Values joined by “and” are separate entries in the source; they are usually repeats but may differ in a detail not shown here. Equal values may be shown once. “Also recorded” adds a separate entry of the source.

For series [1], the system named is CYP3A. As to the kind of experiment: Clinical DDI study: elagolix 150 mg once daily effect on midazolam. To be noted: male participants.
The test system of series [2] is OATP1B1, CYP3A and P‐gp. The experiment in a line: Clinical DDI study: single and multiple dose rifampin effect on elagolix.
For series [3], the system named is OATP1B1/B3 and BCRP. As to the kind of experiment: Clinical DDI study: elagolix and rosuvastatin. The class given is in vivo, human. Conditions: for Increase in rosuvastatin Cmax: first (single) dose of elagolix 300 mg.
The conditions of series [4]: cited from earlier work.
The subject of series [5] is OATP1B1. To be noted: cited from earlier work.
In series [6] the target is P‐gp (Homo sapiens, UniProt P08183). The experiment in a line: Clinical DDI study: elagolix effect on digoxin.
In series [7] the test system is breast cancer resistance protein (BCRP). To be noted: cited from earlier work.
For series [8], the system named is CYP3A4. Conditions: cited from earlier work.
Series [9] deals with CYP3A. The experiment in a line: Clinical DDI study: elagolix 300 mg twice daily effect on midazolam.
The subject of series [10] is CYP3A and P‐gp. As to the kind of experiment: Clinical DDI study: ketoconazole effect on elagolix. The class given is in vivo, human.
The test system of series [11] is CYP2C19. To be noted: cited from earlier work.
Series [12] in a line: Safety and tolerability in the 9 phase 1 DDI studies. It counts as in vivo, human. Conditions: for Participants reporting 1 or more TEAE: ketoconazole study.
Series [13] in a line: Clinical DDI study: elagolix and sertraline.
The conditions of series [14]: background; cited from earlier work.
In series [15] the test system is CYP2C19. To be noted: cited from earlier work. This is another data set of the same source.
In series [16] the test system is P‐gp. To be noted: cited from earlier work.
Series [17] can be described thus: Clinical DDI study: elagolix and fluconazole.
The test system of series [18] is CYP2B6. The experiment in a line: Clinical DDI study: elagolix effect on bupropion. It counts as in vivo, human. Conditions: for Change in AUC values / Increase in Cmax: single dose bupropion after 10 days of elagolix 300 mg twice daily.
Setting [19] is: multiple doses of rifampin (dosing for 10 days) vs elagolix alone.
Setting [20] is: multiple doses of elagolix 300 mg twice daily.
Where [21] appears, read: first dose of elagolix 300 mg twice daily, female participants.
[22] abbreviates: either single dose or multiple doses (10 days) of elagolix 200 mg twice daily.

P‐gp (Homo sapiens, UniProt P08183), sequence (P08183 whole entry): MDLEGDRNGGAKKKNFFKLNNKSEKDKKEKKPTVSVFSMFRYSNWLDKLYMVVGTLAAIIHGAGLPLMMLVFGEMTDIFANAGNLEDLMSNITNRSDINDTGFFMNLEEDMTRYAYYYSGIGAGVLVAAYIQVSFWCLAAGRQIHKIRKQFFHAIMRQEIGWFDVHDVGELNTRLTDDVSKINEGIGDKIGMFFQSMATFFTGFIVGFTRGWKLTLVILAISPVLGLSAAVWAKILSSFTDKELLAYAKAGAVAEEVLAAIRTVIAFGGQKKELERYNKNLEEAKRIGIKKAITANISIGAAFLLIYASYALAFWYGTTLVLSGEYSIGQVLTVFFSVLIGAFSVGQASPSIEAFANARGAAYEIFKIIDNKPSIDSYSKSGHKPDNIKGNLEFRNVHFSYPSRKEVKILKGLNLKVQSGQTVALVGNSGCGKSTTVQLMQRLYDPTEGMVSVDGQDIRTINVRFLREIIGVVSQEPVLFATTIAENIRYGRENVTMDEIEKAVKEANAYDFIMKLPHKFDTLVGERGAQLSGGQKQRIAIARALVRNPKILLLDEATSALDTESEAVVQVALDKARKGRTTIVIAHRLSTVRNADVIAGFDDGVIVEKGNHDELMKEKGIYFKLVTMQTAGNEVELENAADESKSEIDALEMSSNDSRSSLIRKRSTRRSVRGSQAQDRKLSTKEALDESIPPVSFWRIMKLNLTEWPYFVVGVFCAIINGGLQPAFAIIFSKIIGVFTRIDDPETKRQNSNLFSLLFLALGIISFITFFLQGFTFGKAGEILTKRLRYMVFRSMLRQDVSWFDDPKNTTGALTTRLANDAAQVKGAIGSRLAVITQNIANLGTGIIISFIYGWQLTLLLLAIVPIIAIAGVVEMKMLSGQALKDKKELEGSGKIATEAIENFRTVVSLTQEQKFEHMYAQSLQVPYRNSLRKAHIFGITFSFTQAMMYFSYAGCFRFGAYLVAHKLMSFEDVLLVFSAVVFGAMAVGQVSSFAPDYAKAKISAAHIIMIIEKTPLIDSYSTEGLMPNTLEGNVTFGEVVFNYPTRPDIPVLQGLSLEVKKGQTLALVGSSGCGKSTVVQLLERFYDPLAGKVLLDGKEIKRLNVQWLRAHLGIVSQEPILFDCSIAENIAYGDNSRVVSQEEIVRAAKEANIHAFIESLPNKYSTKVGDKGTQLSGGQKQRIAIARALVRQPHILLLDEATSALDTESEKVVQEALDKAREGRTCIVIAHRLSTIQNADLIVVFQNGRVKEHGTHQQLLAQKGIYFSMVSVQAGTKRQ

Take `OCc1ncc2n1-c1ccc(Cl)cc1C(c1ccccc1F)=NC2` [1‐OH‐midazolam, 1-hydroxymidazolam]: the “Increase in 1‐OH‐midazolam exposures” value in [1] (elagolix 150 mg once daily) is reported as “up to 11%”.
In the case of `COc1cccc(-c2c(C)n(Cc3c(F)cccc3C(F)(F)F)c(=O)n(C[C@H](NCCCC(=O)O)c3ccccc3)c2=O)c1F` [elagolix, sodium R‐(+)‐4‐{2‐[5‐(2‐fluoro‐3‐methoxyphenyl)‐3‐(2‐fluoro‐6‐[trifluoromethyl]benzyl)‐4 ‐methyl‐2,6‐dioxo‐3,6‐dihydro‐2H‐pyrimidin‐1‐yl]‐1‐phenylethylamino}butyrate], the “Increase in elagolix exposures (Cmax and AUC)” value in [2] (multiple days of rifampin dosing) is not above 2 fold. In series [2] (setting [19]), the “Increase in elagolix AUC” value was ~2 fold and 1.7 fold; the “Increase in elagolix Cmax” value was 2.0 fold. Besides, the “Increase in elagolix exposures (Cmax and AUC)” value in [2] (single dose of rifampin) was < 6 fold and > 4.4 fold. Also, the “Increase in elagolix Cmax” value in series [2] (with a single dose of rifampin 600 mg vs elagolix alone) amounted to 4.4 fold. Besides, the “Effect of rosuvastatin on elagolix exposure” value in series [3] (rosuvastatin 20 mg once daily, elagolix 300 mg twice daily) was “no effect”. In addition, in series [4], the “Excreted unchanged in urine” value is listed as “less than 3%” and the “Plasma exposure of elagolix metabolites relative to the parent compound” value is reported as “less than 3%”. In [4] (from 100 to 400 mg twice daily), the “Dose proportionality of exposure” value is on record as “approximately dose proportional”. For the same compound, in series [4] (oral), the “Apparent terminal‐phase elimination half‐life (t½)” value was 4 to 6 h and the “Time to mean maximum observed plasma concentration (Tmax)” value is listed as “approximately 1 hour”. In series [5], the “In vitro effect on OATP1B1” value is listed as “inhibitor”. In addition, the “Classification of elagolix as inhibitor of efflux transporter P‐gp” value in series [6] (mechanistic clinical studies) is “weak inhibitor”. Also, the “In vitro effect on BCRP” value in [7] was “inhibitor”. In addition, in [8], the “In vitro effect on CYP3A4” value was “inducer” and the “In vitro metabolism (enzyme)” value is listed as “metabolized primarily by the cytochrome P450 (CYP) enzyme CYP3A4”. In addition, the “Classification of elagolix as inducer of CYP3A” value in series [9] (depending on the dose administered (150 mg once daily, 300 mg twice daily), midazolam studies) is “weak or moderate inducer; also recorded: weak to moderate inducer”. Besides, the “Classification of elagolix as CYP3A (or P‐gp) substrate” value in series [10] (based on ketoconazole study vs FDA criterion (≥5‐fold increase)) is “not considered a sensitive CYP3A substrate”. Moreover, the “Elagolix half‐life with vs without ketoconazole coadministration” value in series [10] (elagolix 150 mg single dose, ketoconazole 400 mg once daily) is “similar”. Also, the “In vitro effect on CYP2C19” value in series [11] is on record as “inhibitor”. In series [12] (across all studies), the “Changes in vital sign values, ECG parameters, physical examination findings, laboratory measurements” value is reported as “no clinically significant changes”; the “Most common adverse events assessed as mild and reasonably related to elagolix” value is “hot flush, headache, nausea, and amenorrhea”; the “Severe adverse events (all assessed as not related to elagolix)” value came out at 3. Also, the Tolerability result in series [12] (elagolix and coadministered drugs across regimens, 144 female and male participants, 9 phase 1 studies) was “generally well tolerated”. For the same compound, the “Participants reporting 1 or more TEAE” value in series [12] (elagolix‐alone portion of the test regimen) is recorded as “zero”. The “Effect of sertraline on elagolix plasma exposures (Cmax and AUC)” value in series [13] (single‐dose 300‐mg elagolix, sertraline 25 mg once daily for 10 days) is “not affected; also recorded: did not affect”. Besides, in [14], the “Common adverse reactions associated with elagolix” value was “hot flush, headache, and nausea”. Further, in series [15], the “Classification of elagolix as inhibitor of CYP2C19” value is reported as “weak inhibitor”. In addition, the “In vitro effect on P‐gp” value in [16] is reported as “inhibitor”. Moreover, the “Increase in elagolix steady‐state Cmax” value in series [17] (10 days of elagolix 300 mg twice daily, single dose of fluconazole 200 mg) is “approximately 30%”.
On to `OC(Cn1cncn1)(Cn1cncn1)c1ccc(F)cc1F` [fluconazole], for which the “Changes in exposure on coadministration of elagolix with fluconazole” value in series [17] (abstract summary) was “No clinically significant changes in exposure”. In addition, the “Effect of elagolix on fluconazole exposures (Cmax and AUC)” value in series [17] (elagolix 300 mg twice daily, fluconazole 200 mg single dose) was “not affected; also recorded: did not affect”.
As for `CC(C)c1nc(N(C)S(C)(=O)=O)nc(-c2ccc(F)cc2)c1/C=C/[C@@H](O)C[C@@H](O)CC(=O)O` [rosuvastatin], the figures for the “Increase in rosuvastatin Cmax” value in series [3] and in [3] (listed as Rosuvastatin) were “approximately 67%” and 67%, respectively. For the same compound, the “Change in rosuvastatin AUC” value in series [3] (first dose of elagolix 300 mg twice daily) is recorded as “no significant change”. The “Change in rosuvastatin Cmax (steady state)” value in series [3] (setting [20]) is reported as “not significantly changed; also recorded: no change”.
As for `CC(=O)N1CCN(c2ccc(OCC3COC(Cn4ccnc4)(c4ccc(Cl)cc4Cl)O3)cc2)CC1` (centres unmarked) [ketoconazole, reference compound], in series [12] (ketoconazole‐alone portion of the test regimen), the “Participants reporting 1 or more TEAE” value was determined as 82%.
`CC(NC(C)(C)C)C(=O)c1cccc(Cl)c1` (centres unmarked) [bupropion]: the “Increase in bupropion PK” value in series [18] (elagolix 300 mg twice daily) is listed as not above 25%. Further, in series [18], the “Change in AUC values” is not above 9% and the “Increase in Cmax” value was 25%.
Take `Cc1ncc2n1-c1ccc(Cl)cc1C(c1ccccc1F)=NC2` [midazolam]: in [9] (setting [21]), the “Increase in midazolam AUC” value is listed as approximately 27% and the “Increase in midazolam Cmax” value was “approximately 18%”. Also, in series [9] (multiple doses of elagolix 300 mg twice daily (11 days of dosing), female participants), the “Decrease in midazolam Cmax” value was “approximately 44%”. Also, the “Decrease in midazolam AUC” value in series [1] (multiple doses of elagolix 150 mg once daily) was approximately 35%. In addition, in series [1] (single dose of elagolix 150 mg once daily), the “Decrease in midazolam AUC” value is listed as “approximately 21%”.
As for `CN[C@H]1CC[C@@H](c2ccc(Cl)c(Cl)c2)c2ccccc21` [sertraline, reference compound], the “Changes in exposure on coadministration of elagolix with sertraline” value in series [13] (abstract summary) is reported as “No clinically significant changes in exposure”. For the same compound, in [13] (setting [20]), the “Increase in sertraline steady‐state Cmax” value was 34%.
As for `C[C@H]1NC(C)(C)CO[C@]1(O)c1cccc(Cl)c1` [OH‐bupropion, hydroxybupropion], in [18], the “Change in AUC values” is listed as not above 9% and the “Increase in Cmax” value turned out to be 32%.
Take `C[C@H]1O[C@@H](O[C@H]2[C@@H](O)C[C@H](O[C@H]3[C@@H](O)C[C@H](O[C@H]4CC[C@@]5(C)[C@H](CC[C@@H]6[C@@H]5C[C@@H](O)[C@]5(C)[C@@H](C7=CC(=O)OC7)CC[C@]65O)C4)O[C@@H]3C)O[C@@H]2C)C[C@H](O)[C@@H]1O` [digoxin]: in series [6] (setting [22]), the “Increase in digoxin AUC” value was approximately 30% and the “Increase in digoxin Cmax” value was “approximately 70%”. Also, the “Digoxin t½ alone vs in the presence of elagolix” value in series [6] (elagolix 200 mg twice daily) is on record as “similar”.
